{"source": "patent US20260021071A1", "about": "“SMALL MOLECULE BROAD-SPECTRUM ANTIBIOTICS” (University of Florida Research Foundation, Incorporated, priority 2022, published 2026)", "key": {"[1]": {"test_system": "NRS135 gram-positive S. aureus strain expressing NorA::tetM", "assay": "microbe, parasite or virus in culture", "type": "cell-based", "conditions": "Staphylococcus aureus, NRS135, read-out: NRS135 IC50 (μM)"}, "[2]": {"test_system": "PAO200 P. aeruginosa bacteria, the MexAB-OprM efflux pump minus strain of PAO1", "assay": "microbe, parasite or virus in culture", "type": "cell-based", "conditions": "Pseudomonas aeruginosa, PAO1, read-out: PAO200 IC50 (μM)"}, "[3]": {"assay": "in vitro", "conditions": "human, wild-type HepG2 cells (ATCC)"}, "[4]": {"test_system": "E. coli W3110 a TolC::Tn10 inclusive strain", "assay": "microbe, parasite or virus in culture", "type": "cell-based", "conditions": "Escherichia coli, read-out: W3110 IC50 (μM)"}, "[5]": {"test_system": "PAO1", "assay": "microbe, parasite or virus in culture", "type": "cell-based", "conditions": "Pseudomonas aeruginosa, PAO1, read-out: PAO01 IC50 (μM)"}}}
{"smiles": "O=[N+]([O-])c1c(Nc2ccccc2)cc(Cl)c2nonc12", "note": "[Compound 2]", "values": [{"measurement": "IC50", "setting": "[1]", "value": 2.47, "unit": "µM"}, {"measurement": "IC50", "setting": "[2]", "value": 1.3, "unit": "µM"}, {"measurement": "CC50", "setting": "[3]", "value": "> 20", "unit": "µM"}, {"measurement": "IC50", "setting": "[4]", "value": 15.2, "unit": "µM"}, {"measurement": "IC50", "setting": "[5]", "value": 18, "unit": "µM"}]}
{"smiles": "CNc1cc(Cl)c2nonc2c1[N+](=O)[O-]", "note": "[Compound 3]", "values": [{"measurement": "CC50", "setting": "[3]", "value": "> 25.4", "unit": "µM"}]}
{"smiles": "Cc1ccc(Nc2nc3nonc3nc2NC(C)C)cc1C", "note": "[Compound 4]", "values": [{"measurement": "IC50", "setting": "[1]", "value": 26.5, "unit": "µM"}, {"measurement": "IC50", "setting": "[2]", "value": 24.7, "unit": "µM"}, {"measurement": "CC50", "setting": "[3]", "value": 11.4, "unit": "µM"}, {"measurement": "IC50", "setting": "[4]", "value": 6.29, "unit": "µM"}, {"measurement": "IC50", "setting": "[5]", "value": "≥ 55", "unit": "µM"}]}
{"smiles": "Cc1c(Nc2nc3nonc3nc2Nc2ccc(F)cc2)c(=O)n(-c2ccccc2)n1C", "note": "[Compound 5]", "values": [{"measurement": "IC50", "setting": "[1]", "value": 9.37, "unit": "µM"}, {"measurement": "IC50", "setting": "[2]", "value": 39.2, "unit": "µM"}, {"measurement": "CC50", "setting": "[3]", "value": 20.6, "unit": "µM"}, {"measurement": "IC50", "setting": "[4]", "value": 3.77, "unit": "µM"}, {"measurement": "IC50", "setting": "[5]", "value": 42, "unit": "µM"}]}
{"smiles": "N#Cc1cccc(NC(=O)Nc2cccc(Cl)c2)c1", "note": "[Compound 6]", "values": [{"measurement": "IC50", "setting": "[1]", "value": 19.8, "unit": "µM"}, {"measurement": "IC50", "setting": "[2]", "value": 24.7, "unit": "µM"}, {"measurement": "CC50", "setting": "[3]", "value": 21.1, "unit": "µM"}, {"measurement": "IC50", "setting": "[4]", "value": 5.99, "unit": "µM"}, {"measurement": "IC50", "setting": "[5]", "value": 55, "unit": "µM"}]}
{"smiles": "N#Cc1ccc(NC(=O)Nc2cccc(Cl)c2)cc1", "note": "[Compound 7]", "values": [{"measurement": "IC50", "setting": "[1]", "value": 9.77, "unit": "µM"}, {"measurement": "IC50", "setting": "[2]", "value": 24.7, "unit": "µM"}, {"measurement": "CC50", "setting": "[3]", "value": 23.8, "unit": "µM"}, {"measurement": "IC50", "setting": "[4]", "value": 3.82, "unit": "µM"}, {"measurement": "IC50", "setting": "[5]", "value": "≥ 55", "unit": "µM"}]}
{"smiles": "O=C(Nc1ccc([N+](=O)[O-])cc1)NC(C(F)(F)F)C(F)(F)F", "note": "[Compound 8]", "values": [{"measurement": "IC50", "setting": "[1]", "value": 18.1, "unit": "µM"}, {"measurement": "IC50", "setting": "[2]", "value": 31.5, "unit": "µM"}, {"measurement": "IC50", "setting": "[4]", "value": 8.89, "unit": "µM"}, {"measurement": "IC50", "setting": "[5]", "value": 39.5, "unit": "µM"}]}
{"smiles": "O=S(=O)(Nc1nccs1)c1ccc(NC(=S)Nc2ccccc2)cc1", "note": "[Compound 9]", "values": [{"measurement": "IC50", "setting": "[1]", "value": 21.9, "unit": "µM"}, {"measurement": "IC50", "setting": "[2]", "value": 12.3, "unit": "µM"}, {"measurement": "CC50", "setting": "[3]", "value": "> 24.8", "unit": "µM"}, {"measurement": "IC50", "setting": "[4]", "value": 3.8, "unit": "µM"}, {"measurement": "IC50", "setting": "[5]", "value": "≥ 55", "unit": "µM"}]}
{"smiles": "O=S(=O)(Nc1nccs1)c1ccc(NC(=S)Nc2ccc(F)cc2)cc1", "note": "[Compound 10]", "values": [{"measurement": "IC50", "setting": "[1]", "value": 17.5, "unit": "µM"}, {"measurement": "IC50", "setting": "[2]", "value": 12.5, "unit": "µM"}, {"measurement": "CC50", "setting": "[3]", "value": "> 24.8", "unit": "µM"}, {"measurement": "IC50", "setting": "[4]", "value": 4, "unit": "µM"}, {"measurement": "IC50", "setting": "[5]", "value": "≥ 55", "unit": "µM"}]}
{"smiles": "Cc1cc(F)ccc1NC(=S)Nc1ccc(S(=O)(=O)Nc2ncccn2)cc1", "note": "[Compound 11]", "values": [{"measurement": "IC50", "setting": "[1]", "value": "≥ 55", "unit": "µM"}, {"measurement": "IC50", "setting": "[2]", "value": 28.2, "unit": "µM"}, {"measurement": "CC50", "setting": "[3]", "value": "> 24.8", "unit": "µM"}, {"measurement": "IC50", "setting": "[4]", "value": 7.08, "unit": "µM"}, {"measurement": "IC50", "setting": "[5]", "value": "≥ 55", "unit": "µM"}]}
{"smiles": "O=C(Nc1ccc(N2CCOCC2)cc1)c1cccc(-n2cc(Nc3nnnn3C3CCCCC3)cn2)c1", "note": "[Compound 12]", "values": [{"measurement": "IC50", "setting": "[1]", "value": 38.7, "unit": "µM"}, {"measurement": "IC50", "setting": "[2]", "value": 22.3, "unit": "µM"}, {"measurement": "IC50", "setting": "[4]", "value": 29.1, "unit": "µM"}, {"measurement": "IC50", "setting": "[5]", "value": 103, "unit": "µM"}]}
{"smiles": "COc1cc(NC(=O)c2cccc(-n3cc(Nc4nnnn4-c4ccccc4)cn3)c2)ccc1N1CCOCC1", "note": "[Compound 13]", "values": [{"measurement": "IC50", "setting": "[1]", "value": 15.6, "unit": "µM"}, {"measurement": "IC50", "setting": "[2]", "value": 13.9, "unit": "µM"}, {"measurement": "IC50", "setting": "[4]", "value": 8.71, "unit": "µM"}, {"measurement": "IC50", "setting": "[5]", "value": 95.7, "unit": "µM"}]}
{"smiles": "CCOC(=O)c1cccc(-n2cc(Nc3nnnn3-c3ccccc3)cn2)c1", "note": "[Compound 14]", "values": [{"measurement": "IC50", "setting": "[1]", "value": 43.6, "unit": "µM"}, {"measurement": "IC50", "setting": "[2]", "value": 20.5, "unit": "µM"}, {"measurement": "CC50", "setting": "[3]", "value": "> 24.8", "unit": "µM"}, {"measurement": "IC50", "setting": "[4]", "value": 14.6, "unit": "µM"}, {"measurement": "IC50", "setting": "[5]", "value": "≥ 55", "unit": "µM"}]}
{"smiles": "O=C(CCn1cnc2ccccc2c1=O)Nc1cccc(Cl)c1", "note": "[Compound 15]", "values": [{"measurement": "IC50", "setting": "[1]", "value": 47.4, "unit": "µM"}, {"measurement": "IC50", "setting": "[2]", "value": 2.7, "unit": "µM"}, {"measurement": "CC50", "setting": "[3]", "value": "> 24.8", "unit": "µM"}, {"measurement": "IC50", "setting": "[4]", "value": 0.873, "unit": "µM"}, {"measurement": "IC50", "setting": "[5]", "value": 38.6, "unit": "µM"}]}
{"smiles": "c1ccc(CNc2ncnc3c2[nH]c2ccccc23)cc1", "note": "[Compound 16]", "values": [{"measurement": "IC50", "setting": "[1]", "value": "≥ 55", "unit": "µM"}, {"measurement": "IC50", "setting": "[2]", "value": 41.5, "unit": "µM"}, {"measurement": "CC50", "setting": "[3]", "value": "> 24.8", "unit": "µM"}, {"measurement": "IC50", "setting": "[4]", "value": 15.9, "unit": "µM"}, {"measurement": "IC50", "setting": "[5]", "value": "≥ 55", "unit": "µM"}]}
{"smiles": "COc1cccc(CN2CCC3(CC2)NCCc2c3[nH]c3ccccc23)c1", "note": "[Compound 17]", "values": [{"measurement": "IC50", "setting": "[1]", "value": "≥ 55", "unit": "µM"}, {"measurement": "IC50", "setting": "[2]", "value": 39, "unit": "µM"}, {"measurement": "CC50", "setting": "[3]", "value": "> 24.8", "unit": "µM"}, {"measurement": "IC50", "setting": "[4]", "value": 47.4, "unit": "µM"}, {"measurement": "IC50", "setting": "[5]", "value": 28.2, "unit": "µM"}]}
